US20250304623A1, “PEPTIDES FOR INTRACELLULAR DELIVERY” (UNIVERSIDADE DE SANTIAGO DE COMPOSTELA, priority 2022, published 2025)

Tests used:
Hela cells = assay: EGFP pDNA transfection, flow cytometry, HeLa; type: cell-based; conditions: myristoleyl aldehyde
Protocol: (§1) For cytometry-based assays, the delivery of pDNA encoding for the expression of eGFP gene (GFP) in HeLa and A549 cells was performed. Amphiphilic molecule stock solutions in DMSO were diluted with DMEM and freshly mixed with pDNA stock solutions in DMEM prior to transfection experiments, to afford several complexes at different amphiphile concentration (2.5-10 μM) while maintaining a constant final pDNA concentration of 2 ng/μL. The mixture was shaken for 30 min at room temperature before the addition to the cells. The cell medium was aspirated, and cells were washed twice with PBS. Finally, 50 μL of the complex's solution were added to the cells and incubated for 4 h. After the incubation, the medium was replaced by 100 μL of fresh DMEM supplemented with 10% FBS. 72 hours after transfection the DMEM was removed, and cells were cultured for 5 min with 100 μL of trypsin. Then, 100 μL of PBS (supplemented with 2% FBS and 1% EDTA 0.5M) were added. Finally, the GFP fluorescent measurement was performed in a flow cytometer and the percentage of GFP positive (i.e., transfected cells) were quantified. Amphiphile transfection efficiency was compared to control, non-treated cells and all experiments were done in triplicate.
7.3(Leu-His) peptide with D-amino acids was synthesized. This peptide would be more resistant to the degradation by proteases. The inventors studied the delivery of EGFP pDNA using amphiphiles comprising either enantiomer (either 7.3(Leu-His) peptide with D-amino acids or with L-amino acids) and myristoleyl aldehyde to compare their transfecting activity in HeLa cells. Number of EGFP expressing cells was measured by flow cytometry.
Experiments in cultured cells at different confluence levels were performed to check the effect of this parameter on the activity of amphiphile 7.3(Leu-His) M. As described above, transfection experiments are usually performed on cells seeded the day before at a cell concentration of 60,000 cell/mL (100 μL/well). In the current example, transfection experiments with EGFP pDNA are performed in HeLa cells two and four times more concentrated (120,000 and 240,000 cells/mL, respectively). […] However, for this experiment more volume of complex amphiphile/pDNA was needed as the cell concentration was increased (50, 100 and 200 μL of complexes were used for 60,000, 120,000 and 240,000 cells/mL, respectively).
Several structural modifications were performed on the peptide 7.3(Leu-His). The delivery of EGFP pDNA in HeLa cells using amphiphiles comprising these peptides and myristoleyl aldehyde was tested. The modifications consisted of the modification in the order of the amino acids, the replacement of 1 to 3 K* residues for O* residues and the addition of 1 or 2 R residues on the N-terminus. […]

A549 cells = assay: EGFP pDNA transfection, flow cytometry, A549; type: cell-based; conditions: myristoleyl aldehyde, 5 μM
Protocol: FIG. 6 EGFP pDNA transfection efficacy with amphiphiles (myristoleyl aldehyde hydrophobic tails were used in all cases) comprising peptide 7.3(L-H) and other short peptides structurally-derived from 7.3(L-H), in A549, HeLa and HepG2 cell lines. 5 μM of amphiphile and 2 ng/μL pDNA per well were used in the transfection experiments. “LF”=Lipofectamine® 2000 commercial reagent.
as §1, with “72 hours after transfection the DMEM was removed, and cells were cultured for 5 min with 100 μL of trypsin. Then, 100 μL of PBS (supplemented with 2% FBS and 1% EDTA 0.5M) were added.” left out, “Amphiphile transfection efficiency was compared to control, non-treated cells and all experiments were done in triplicate.” left out

[1] = 5 μM, cell lines of FIG. 6 other than A549

Substance: Ac-RHK*K*K*HR-NH2 (Ac-RHKKKHR-NH2; not fully specified (residues 3, 4, 5); printed as Ac-RHK*K*K*HR-NH2; also: linker on K* not given here) [V1-7.3(Leu-His)]
- EGFP pDNA transfection efficiency compared with amphiphile 7.3(Leu-His) M (Hela cells; [1]): generally show the same transfection efficiency
- EGFP pDNA transfection efficiency compared with other amphiphiles (A549 cells): about half

Substance: Ac-RK*HHK*K*R-NH2 (Ac-RKHHKKR-NH2; not fully specified (residues 2, 5, 6); printed as Ac-RK*HHK*K*R-NH2; also: linker on K* not given here) [V2-7.3(Leu-His)]
- EGFP pDNA transfection efficiency as % of V1-7.3(Leu-His) M or 7.3(Leu-His) M (Hela cells; [1]): about 50%
- EGFP pDNA transfection efficiency compared with other amphiphiles (A549 cells): enhanced efficiency matching V1-7.3(Leu-His) M transfection efficiency

Substance: Ac-RK*HRK*K*H-NH2 [7.3(Leu-His) peptide with D-amino acids]
- EGFP pDNA transfecting activity, D- versus L-amino acid peptide (Hela cells; HeLa, flow cytometry): both peptides perform equally efficiently
